Results published in ChEMBL document CHEMBL3507680, “University of Dundee, Gates Library screen for HepG2 cell viability”.

Assay: Human HepG2 cell viability assay in 384 well format
Assay type: toxicity, cell-based
Parameters: dose 125 nL, time 70.5 hour; cytotoxicity at 70.5 h: concentration not given beside the values
Conditions: HepG2 cells, read-out: Inhibition
For Cc1nc2cc(=O)[nH]n2c(C)c1CNC(=O)C(C)Cc1ccccc1 (configuration not stated), the cytotoxicity at 70.5 h was 3.77%.
In the case of O=C(CCc1ccccc1)NCC1CCN(Cc2cccs2)CC1, the cytotoxicity at 70.5 h is reported as -8.06%.
Cn1nccc1C(=O)NC(C)(C)c1noc(C(C)(C)C)n1 showed a cytotoxicity at 70.5 h of -16.4%.
With CCc1c(C(=O)N2C[C@H]3CC[C@@H]2CN(c2cnccn2)C3)csc1C the cytotoxicity at 70.5 h was -6.26%.
COc1ncccc1CN1C[C@H]2CCN(C(C)C)C[C@H]2C1 showed a cytotoxicity at 70.5 h of -4.86%.
O=C(CC1CCCO1)NCCCC(=O)Nc1ccc(Cl)cc1 (configuration not stated) showed a cytotoxicity at 70.5 h of -7.07%.
In the case of Cc1noc(C)c1CN(C)C(=O)c1ccc(NC2CC2)nc1, the cytotoxicity at 70.5 h is reported as 0.339%.
For COCCN1C(=O)CC[C@]12CC[C@@H](NCc1nccs1)CC2, the cytotoxicity at 70.5 h was -6.2%.
For CC(C)n1[nH]c(=O)c2c1NC(=O)CC2c1cccc(OC(F)F)c1 (configuration not stated), the cytotoxicity at 70.5 h was 6.29%.
With CN(C)S(=O)(=O)c1csc(C(=O)N2CCC(C(N)=O)CC2)c1 the cytotoxicity at 70.5 h was -7.56%.
COC[C@@]12CCO[C@@H]1CCN(Cc1ccccc1OC)C2 showed a cytotoxicity at 70.5 h of -12.9%.
In the case of Cn1ccc(C(=O)NCCOc2ccc3c(c2)CCC3)cc1=O, the cytotoxicity at 70.5 h is reported as -3.77%.
For O=C(NCCn1ccnc1)NCC(c1ccco1)N1CCCC1 (configuration not stated), the cytotoxicity at 70.5 h was 9.47%.
For CC(C)C(=O)N1CCc2c(CN(C)Cc3ccco3)cncc2C1, the cytotoxicity at 70.5 h was -9.73%.
In the case of Cc1ccc2c(c1)C(NC(C)C)CC21CCNCC1 (configuration not stated), the cytotoxicity at 70.5 h is reported as -1.86%.
For O=C(C1SCCc2sccc21)N1CCC(O)CC1 (configuration not stated), the cytotoxicity at 70.5 h was 1.7%.
Compound CSc1ccccc1CN1CCn2nc(CNC(C)=O)cc2C1 has a cytotoxicity at 70.5 h of -0.83%.
CCN(CC)c1nc(C)cc(C(=O)Nc2cccc(C(N)=O)c2)n1 showed a cytotoxicity at 70.5 h of -7.03%.
In the case of CC(=O)Nc1nc(CN2CCCC2Cn2cncn2)cs1 (configuration not stated), the cytotoxicity at 70.5 h is reported as 35.6%.
CCC1(CC)CC(=O)N(CC(O)c2cccc(Br)c2)C1=O (configuration not stated) showed a cytotoxicity at 70.5 h of 28.9%.
With CSCCc1n[nH]c2c1CN(S(=O)(=O)c1cn(C)c(C)n1)CC2 the cytotoxicity at 70.5 h was -4.85%.
For COCCO[C@H]1COCCN(C2CCN(C)CC2)C1, the cytotoxicity at 70.5 h was 12.5%.
O=C1CC(C(=O)Nc2nnc(-c3ccccn3)[nH]2)c2ccccc2N1 (configuration not stated) gave a cytotoxicity at 70.5 h of 6.91%.
In the case of Fc1ccccc1CN(CCCn1ccnc1)CC1CCOC1 (configuration not stated), the cytotoxicity at 70.5 h is reported as 9.07%.
Work on CC(C)(C)n1cc(CNC2CCN(C(=O)c3ccncc3)CC2)cn1 yielded a cytotoxicity at 70.5 h of -1.24%.
COc1ccc(S(=O)(=O)C2CCN(C(=O)c3cc(C)cs3)CC2)cc1 gave a cytotoxicity at 70.5 h of 1.95%.
CCN(CC)CCNc1ncc(-c2cc(C)no2)c(-c2ccoc2C)n1 showed a cytotoxicity at 70.5 h of -10.5%.
In the case of COc1ccc(-n2ccc(C(=O)NCCN3CCCCCC3)n2)cc1, the cytotoxicity at 70.5 h is reported as -2.62%.
For Cc1nc(CN2CCCCC2CCc2ccc(O)cc2)co1 (configuration not stated), the cytotoxicity at 70.5 h was -6.18%.
Cc1nc2ccnn2c(C)c1CCC(=O)N1CCSCC1 showed a cytotoxicity at 70.5 h of -6.09%.
With COc1ccc(CNC(=O)Nc2cccnc2OC)cc1O the cytotoxicity at 70.5 h was 22.7%.
CC(c1nnc(-c2cccs2)o1)N1CCn2c(nnc2C2CC2)C1 (configuration not stated) gave a cytotoxicity at 70.5 h of -0.792%.
In the case of O=C1NCCCCC1SCc1coc(-c2cccc(F)c2)n1 (configuration not stated), the cytotoxicity at 70.5 h is reported as -5.82%.
c1cc(CNCC2CNc3ccnn3C2)cc(N2CCCCC2)n1 (configuration not stated) gave a cytotoxicity at 70.5 h of 25.3%.
CS(=O)(=O)N1CCC(c2ccncn2)CC1 showed a cytotoxicity at 70.5 h of -10.9%.
Work on CC(C)c1noc(C[S+]([O-])CC(=O)Nc2ccc(F)c(F)c2)n1 (configuration not stated) yielded a cytotoxicity at 70.5 h of 10.4%.
In the case of COc1cccc2sc(N3CC(OC(C)=O)C3)nc12, the cytotoxicity at 70.5 h is reported as -11.2%.
With CN1CC(=O)N(c2ccsc2)CC12CCN(C(=O)c1cccn1C)C2 (configuration not stated) the cytotoxicity at 70.5 h was -5.46%.
CC(=O)NCc1cccc(-n2ccnc2-c2cccc(C(=O)O)c2)c1 gave a cytotoxicity at 70.5 h of 16.6%.
CCCN(C(=O)CN1CCN(CCO)CC1)C1=CCCCC1 gave a cytotoxicity at 70.5 h of -0.879%.
With CC(=O)N1CCC2(CC1)COCCN2CCN(C)C the cytotoxicity at 70.5 h was -10.7%.
In the case of Cn1cnc2c1CCN(CCS(=O)(=O)c1ccccc1)C2, the cytotoxicity at 70.5 h is reported as -17%.
In the case of COc1ccc(CN2C[C@@H]3CN(Cc4ccoc4)C[C@@H]3C2=O)cc1, the cytotoxicity at 70.5 h is reported as -6.31%.
For Cc1cccc(CC(=O)Nc2cnn(C3CCOC3)c2)c1 (configuration not stated), the cytotoxicity at 70.5 h was -13.6%.
Cc1ccc(CN2C[C@@H](OCc3ccccn3)[C@H]3COC[C@H]32)o1 gave a cytotoxicity at 70.5 h of -5%.
In the case of CCN(CC)C1COc2ccc(Br)cc2C1=O (configuration not stated), the cytotoxicity at 70.5 h is reported as -5.6%.
Work on CCc1oc(C(=O)N2CCC(N(CC)C(C)=O)C2)cc1CN(CC)CC (configuration not stated) yielded a cytotoxicity at 70.5 h of -12.3%.
Compound CCNC(=O)[C@@H]1C[C@@H](NC(=O)Cc2ccncc2)CN1Cc1ccsc1 has a cytotoxicity at 70.5 h of -1.57%.
Compound Cc1nc(N2CCCC2)nc2c1CCN(C(=O)C1CCCC1)CC2 has a cytotoxicity at 70.5 h of -9.52%.
Compound Cc1nnc2n1CCN(C(=O)c1cc(Cl)c(Cl)n1C)C2 has a cytotoxicity at 70.5 h of -3.86%.
For COc1ccc(F)c(CN2CCCC3(CCN(C(=O)CSC)C3)C2)c1 (configuration not stated), the cytotoxicity at 70.5 h was 8.81%.
For O=C(NCCn1nc(-n2cncn2)ccc1=O)c1ccc(F)cc1F, the cytotoxicity at 70.5 h was -5.23%.
In the case of CCc1cccc2c(CC(=O)N(C)CCN(C)C)c(C)[nH]c12, the cytotoxicity at 70.5 h is reported as -8.74%.
Work on Cc1ncsc1C(=O)NCC1SCCc2ccccc21 (configuration not stated) yielded a cytotoxicity at 70.5 h of 6.22%.
In the case of CS(=O)(=O)N1CCO[C@@H]2CN(Cc3ccc(F)cc3)CC[C@@H]2C1, the cytotoxicity at 70.5 h is reported as -4.41%.
Cc1ccccc1OCC1CCCN(C(=O)CNC(=O)N(C)C)C1 (configuration not stated) showed a cytotoxicity at 70.5 h of 16.8%.
Compound CNS(=O)(=O)CC1CCCN1C(=O)c1ccc(C)c(C)c1 (configuration not stated) has a cytotoxicity at 70.5 h of 25.9%.
In the case of Cc1cc(N)nc(SC2CCCN(Cc3ccccc3)C2=O)n1 (configuration not stated), the cytotoxicity at 70.5 h is reported as -9.67%.
Compound Cc1ccc(-c2noc(CN3CCOC(Cn4cccn4)C3)n2)cc1 (configuration not stated) has a cytotoxicity at 70.5 h of -3.88%.
CCCS(=O)(=O)N1C[C@H]2C[C@H](C(=O)N(C)C)[C@@H](C1)O2 showed a cytotoxicity at 70.5 h of -13.7%.
Compound CCNC(c1cccnc1)c1ccc(F)cc1F (configuration not stated) has a cytotoxicity at 70.5 h of 2.45%.
COc1ccc(CC(=O)N(C)Cc2nnc3ccccn23)cc1 showed a cytotoxicity at 70.5 h of -17.4%.
Compound COc1cccc(N2CCN(C(=O)CO)CC2=O)c1 has a cytotoxicity at 70.5 h of -2.57%.
CC(C)(C)c1nnc2n1C(C(=O)N1CCCC1)CC2 (configuration not stated) showed a cytotoxicity at 70.5 h of -12.7%.
O=C(Cn1ncc2c(c1=O)CCCCC2)Nc1cccc2[nH]ccc12 showed a cytotoxicity at 70.5 h of 3.91%.
For CCS(=O)(=O)N1CCc2c(cnc(-c3cccnc3)c2C(=O)O)C1, the cytotoxicity at 70.5 h was 10.1%.
Cc1ccc2cccc(S(=O)(=O)N(C)C3CCCN(C)C3)c2n1 (configuration not stated) showed a cytotoxicity at 70.5 h of 0.353%.
In the case of CCN1CCCC(c2c(-c3ccccc3)ncn2CCCO)C1 (configuration not stated), the cytotoxicity at 70.5 h is reported as -8.57%.
For O=C(NCCCNC(=O)c1ccccc1)Nc1ccc(F)cc1F, the cytotoxicity at 70.5 h was -4.28%.
Work on O=C(CCn1cnc2cc(F)c(F)cc21)N1CCN2CCCCC2C1 (configuration not stated) yielded a cytotoxicity at 70.5 h of -1.04%.
Compound CS(=O)(=O)c1nccn1Cc1ccc(F)cc1Cl has a cytotoxicity at 70.5 h of -6.78%.
With COCCCNC(=O)C(C)(C)N(C)C1CCCC1 the cytotoxicity at 70.5 h was -0.184%.
For CCn1ncnc1C(C)Nc1cc(C)c2ccc(SC)cc2n1 (configuration not stated), the cytotoxicity at 70.5 h was -11.1%.
CCN1CCN(C(=O)NCCOc2ccc3c(c2)OCO3)CC1 gave a cytotoxicity at 70.5 h of -11.4%.
Compound Cc1cc(CN2CC[C@H]3C[C@@H](c4nc(C5CC5)cs4)O[C@@H]3C2)no1 has a cytotoxicity at 70.5 h of -2.95%.
Compound CN(CC(=O)NS(=O)(=O)c1ccc(F)cc1)Cc1ccccc1 has a cytotoxicity at 70.5 h of -3.97%.
CCN1CCOCC12CCN(C(=O)C1CCC1)CC2 showed a cytotoxicity at 70.5 h of 14.1%.
Cn1ccnc1SCCNc1nccc(C(F)(F)F)n1 showed a cytotoxicity at 70.5 h of 16%.
Work on CN(C)C(=O)CN1C[C@@H]2OCCN(c3ncc(F)cn3)[C@@H]2C1 yielded a cytotoxicity at 70.5 h of 0.597%.
For Cc1nc(O)c2nnn(C[C@H]3CCCN3C(=O)c3ccccc3F)c2n1, the cytotoxicity at 70.5 h was -0.74%.
Compound C1CN(CC2CC2)C(COCC2CC2)c2nnn(CC3CC3)c21 (configuration not stated) has a cytotoxicity at 70.5 h of -12.9%.
CCn1cc(CNc2ccc(F)c(N3CCCS3(=O)=O)c2)cn1 showed a cytotoxicity at 70.5 h of 0.531%.
